The source of these data is US20250163379A1, “METHOD FOR DIFFERENTIATING HEMATOPOIETIC STEM/PROGENITOR CELLS INTO NK CELLS” (HEMACELL BIOTECHNOLOGY INC., priority 2022, published 2025).

The subject of assay [1] is hematopoietic stem/progenitor cells. Description: Inducing differentiation of hematopoietic stem/progenitor cells into NK cells (CD3-CD56+). It counts as cell-based. Conditions: GABA pathway activator in initial differentiation medium; control group 75.6%; FIG. 1. The method, then:
(§1) The experiment was carried out according to the following steps: • (1) Inoculating hematopoietic stem/progenitor cells into an initial differentiation medium and culturing at 35-39° C. and 3-7%0CO2 for 5 days; • (2) Continuing culturing cells in NIK differentiation medium I for 3-5 days; • (3) Continuing culturing the cells in NK differentiation medium II; replacing half of the culture medium every 5 to 6 days for 22 to 28 days or until NK cells are obtained. • (4) Basal differentiation medium: DMEM high glucose medium, Ham's F-12Nutrient Mix, GlutaMAX™ supplement medium, heat-inactivated human AB serum, L-glutamic acid, 2-mercaptoethanol, sodium selenite, aminoethanol and L-ascorbic acid. • (5) Initial differentiation medium: basal differentiation medium, SCF (15-25 ng/mL); IL3 (3-7 ng/mL); IL7 (15-25 ng/mL); IL15 (8-12 ng/mL); Flt3-L (8-12 ng/mL); GABA pathway activator. • (6) NK differentiation medium I: basal differentiation medium; SCF (15-25 ng/mL); IL3 (3-7 ng/mL); IL7 (15-25 ng/mL); IL15 (8-12 ng/mL); Flt3-L (8-12 ng/mL). • (7) NK differentiation medium II: basal differentiation medium; SCF (15-25 ng/mL); IL15 (8-12 ng/mL); IL7 (15-25 ng/mL); Flt3-L (8-12 ng/mL).
CD3 is a marker of T cells, CD56 is a marker of NK cells, and the characterization of NK cells is CD3-CD56+. […]

The test system is the same in assay [2]. Description: Flow cytometry analysis of induced NK cells for cytotoxic markers (CD16, CD314, CD335, CD336). Format: cell-based. Conditions: for efficiency of obtaining CD16+CD56+ NK cells: control group 5.45%, FIG. 2; for efficiency of obtaining CD314+ NK cells: control group 10.1%, FIG. 3; for efficiency of obtaining CD335+ NK cells: control group 12.4%, FIG. 4; for efficiency of obtaining CD336+ NK cells: control group 35.7%, FIG. 5. On the procedure: as §1
Flow cytometry analysis of induced NK cells
(1) Collection of NK cells: The cells were centrifuged at 300 g for 5 min; the supernatant was discarded, an equal volume of FACS buffer was added to wash and resuspend the cells, and the cells were centrifuged; the above steps were repeated twice; the cells were centrifuged and the supernatant was discarded, and thereafter, 125 μL of FACS buffer was added to resuspend the cells.
(2) Cell staining: 2.5 μL of labeled antibody was added to the cell suspension (volume ratio of labeled antibody:cell=1:50), the system was mixed well, and allowed to react at room temperature in the dark for 30 min; after centrifugation, the supernatant was discarded; 1 mL of FACS buffer was added to wash and resuspend the cells, the cells were centrifuged, and the above steps were repeated twice; the cells were centrifuged and the supernatant was discarded, and thereafter 250 μL of FACS buffer was added to resuspend the cells, the system was transferred to a Falcon flow tube, and placed on ice; 0.25 μL of DAPI was added before loading, the system was mixed well for later loading and detection.
(3) Preparation of single-color compensation control: The microspheres were mixed evenly by inverting vigorously at least 10 times or pulse vortexing; to each EP tube, 1 drop of UltraCompe Beads was added, then 1 μL of fluorescent antibody conjugate was added, the system was well mixed by blowing-suction with a pipette, and incubated at room temperature in the dark for 30 min; 1 mL of FACS buffer was added to each EP tube, the system was centrifuged at 400 g for 5 min at room temperature; the supernatant was sucked out carefully without removing the beads, and then 250 μL of FACS buffer was added to each test tube; the sample was mixed evenly by flicking or pulse vortexing before analysis.
(4) Detection on the flow cytometer: Before detection, the stained cells were placed on ice to prevent cell aggregation; at least 10,000 cells were tested for each sample; unstained cells were analyzed on the flow cytometer, and appropriate FSC and side scatter SSC as well as the voltage of the fluorescence detector PMT were set. […]
(In general: Flow cytometry measures light scatter and fluorescence of single cells or particles in a stream.)

`NCCCC(=O)O` [GABA, γ-aminobutyric acid]: the “efficiency of obtaining NK cells (CD3-CD56+)” value in assay [1] came to 88.3%. For the same compound, in assay [2], the “efficiency of obtaining CD16+CD56+ NK cells” value is 5.86%, the “efficiency of obtaining CD314+ NK cells” value is 11.0%, the “efficiency of obtaining CD335+ NK cells” value amounted to 18.2% and the “efficiency of obtaining CD336+ NK cells” value was determined as 48.2%.

For the compound `NC/C=C/C(=O)O` [TACA, trans-4-aminocrotonic acid], in assay [1], the “efficiency of obtaining NK cells (CD3-CD56+)” value came out at 87.2%. Further, in assay [2], the “efficiency of obtaining CD16+CD56+ NK cells” value amounted to 9.71%, the “efficiency of obtaining CD314+ NK cells” value was 18.4%, the “efficiency of obtaining CD335+ NK cells” value is 21.1% and the “efficiency of obtaining CD336+ NK cells” value amounted to 48.8%.
